# Reference: patent US20110268812A1, “Cosmetic or dermatological composition comprising the combination of honey and a peptide” (LVMH RECHERCHE, priority 2010, published 2011)
# Ends that are not written are not given here. * marks the point of attachment. Palmitoyl = CCCCCCCCCCCCCCCC(=O)*
# System: normal human fibroblasts (NHFs)
# Assay: In vitro healing test: recolonization of the damaged zone by fibroblasts (IBIDI culture inserts)
# Assay type: cell-based
# Conditions: 16 h treatment in DMEM alone, final concentrations: clover honey 100 μg/mL, Pal-VGVAPG solution 1%, change vs nontreated control (NT)
# Description: This experiment is based on a model of biocompatible cell culture inserts allowing quantitative and perfectly reproducible measurement of the phenomena of healing in vitro.
# The cells used in this study are normal human fibroblasts (NHFs).
# The cells are seeded in 175 cm^2 flasks at a density of 1 million per flask in DMEM (Dulbecco's Modified Eagle's Medium) culture medium supplemented with 10% of foetal calf serum and 1.3 mM L-glutamine. Having reached confluence, the cells are trypsinized and re-seeded for the healing test.
# Before seeding of the cells, inserts sold in the form of kits under the name Culture-Insert (ref. 80209) by the company IBIDI (Germany) are placed at the bottom of six wells of a plate. […]
# The cells are maintained in culture for 16 h (optimum measurement time determined previously), in an incubator at 37° C. and in an atmosphere containing 5% CO2. […]
# Images are immediately taken on a Nikon TE2000 video microscope in blue fluorescence (cell nuclei) and red fluorescence (actin filaments), at a rate of 2 photos per well at the damaged zone.
# Image analysis is used to visualize and quantify the colonization by fibroblasts of the artificially “damaged” zone after removal of the insert. […]
# The number of cells that have recolonized the damaged zone, per unit area (cm^2), is calculated. […]
substance,measurement,value
"palmitoyl-Val-Gly-Val-Ala-Pro-Gly (Palmitoyl-VGVAPG) [Pal-VGVAPG, sold in the form of an aqueous-glycolic solution under the trade name Biopeptide EL by the company Sederma]",recolonization of the damaged zone (number of cells having recolonized per cm^2) compared with the nontreated control,+150%
